This note sets out measurements from patent US20120230991A1, “METHODS AND COMPOUNDS FOR ENHANCING ANTI-CANCER THERAPY” (priority 2008, published 2012).

The test system of assay [1] is 697 Human B-ALL Cell Lines. Description: MTT assay, chemosensitivity of 697 cells (wild type, shControl, Mer knockdown), 48 hours. The assay is classed as cell-based. The protocol:
Inhibition of Mer expression results in increased chemosensitivity in 697 cells. […] IC50 values were determined by non-linear regression of data from at least three independent experiments performed in triplicate, as shown in Table 1.
For orientation: Tetrazolium dyes change colour on reduction, which living cells bring about.

In assay [2] the test system is 697 cells. Description: Flow cytometry of apoptotic and dead cells (YO-PRO-1 / propidium iodide), 697 cells. As to conditions: 697 shMer1A vs shControl, 48 hours. The assay is classed as cell-based, human. The protocol: Apoptotic and dead cells were identified by flow cytometric analysis of cells stained with YO-PRO®-1 and propidium iodide: A) representative flow cytometry profiles; B) mean values and standard errors derived from 3 independent experiments.
Cultures of shControl or shMer1A 697 cells were exposed to 6-MP, VP-16, or medium only for 48 hours: A) Apoptotic and dead cells were identified by flow cytometric analysis of cells stained with YO-PRO®-1 and propidium iodide: Representative flow cytometry profiles; B) the percentages of apoptotic and dead cells are indicated in lower-right and upper-right quadrants, respectively. Mean values and standard errors derived from 3 independent experiments. Results were tested for significance using two-way ANOVA and Bonferroni posttests to compare shControl and shMer1A cells at equivalent drug concentrations.

Assay [3] deals with A549 Human NSCLC Cell Lines. Description: Relative cell numbers of A549 cells (wild type, shControl, Axl/Mer knockdown) after 48 hours of drug. The assay is classed as cell-based. As to conditions: for IC50: 48 hours, relative cell number; for sensitivity of the shAxl9-D3 Axl knockdown clone: A549 shAxl9-D3, 48 hours.
The test system of assay [4] is A549 Human NSCLC Cell Lines. Nature of the assay: BrdU incorporation ELISA, relative cell proliferation of A549 cells, 48 hours. As to conditions: for sensitivity of A549 cells with inhibition of Mer expression: A549 Mer1-G8 knockdown, BrdU; for IC50: BrdU assay. The assay is classed as cell-based. The protocol:
The relative cell proliferation was determined via a BrdU incorporation ELISA. IC50 values were determined by non-linear regression of data from at least three independent experiments performed in triplicate (see Table 3).

Assay [5] concerns G12 astrocytoma cells. Description: MTT assay, chemosensitivity of G12 astrocytoma control and knockdown cells. The assay is classed as cell-based. The protocol:
(§1) G12 control (shControl) and knockdown cells (shMer1 and shMer4; shAxl8 and shAxl9) were plated in 96-well plates at concentrations determined to allow linear growth over 3 days: A) cells were treated with varying concentrations of temozolomide and relative cell number was assessed 48 h after treatment by colorimetric assessment/MTT assay. Error bars denote experiments performed in triplicate. A172 control (shControl) and knockdown cells (shMer1A and shMer1B; shAxl8 and shAxl9) were plated in 96-well plates at concentrations determined to allow linear growth over 3 days: B) cells were treated with varying concentrations of carboplatin and relative cell number was assessed 48 h after treatment by colorimetric assessment/MTT assay. Error bars represent three independent experiments performed in triplicate.
(§2) Table 4 provides the IC50 with 95% CI for G12 and A172 control and Mer and Axl knockdown cells, in response to chemotherapy. In Table 4, ‘NR’ indicates an IC50 was never reached. ‘IND’ represents that that CI was indeterminate. The IC50 for each knockdown line was compared to the control line, and an ‘*’ represents that the comparison is statistically different while an ‘NS’ represents that there was no statistically significant difference because either the CI was indeterminate (as with the G12 shAxl9 line treated with carboplatin) or it overlapped with the shControl CI.

Assay [6] relates to A172 glioblastoma cells. Nature of the assay: MTT assay, chemosensitivity of A172 control and knockdown cells. The assay is classed as cell-based. The protocol: as §1, §2
The test system of assay [7] is A549 cells. Nature of the assay: Induction of apoptosis / cell death in A549 knockdown cells treated with doxorubicin. The assay is classed as cell-based, human.
Setting [8] is: 697 shMer1A (Mer knockdown) cells.
The mark [9] stands for this setting: 697 shMer1B (Mer knockdown) cells.
Where [10] appears, read: Homo sapiens, A549, 48 h, A549 Wild Type.
Where [11] appears, read: Homo sapiens, A549, 48 h, A549 shAxl8-G5 (Axl knockdown).
The mark [12] stands for this setting: Homo sapiens, A549, 48 h, A549 shAxl9-D3 (Axl knockdown).
Where [13] appears, read: Homo sapiens, A549, 48 h, A549 shControl.
The mark [14] stands for this setting: Homo sapiens, A549, 48 h, A549 shMer1-G8 (Mer knockdown).
The mark [15] stands for this setting: Homo sapiens, A549, 48 h, A549 Wild Type, 48 hours.
The mark [16] stands for this setting: Homo sapiens, A549, 48 h, A549 shAxl8-G5, 48 hours.
The mark [17] stands for this setting: Homo sapiens, A549, 48 h, A549 shAxl9-D3, 48 hours.
Where [18] appears, read: Homo sapiens, A549, 48 h, A549 shControl, 48 hours.
Setting [19] is: Homo sapiens, A549, 48 h, A549 shMer1-G8, 48 hours.

Regarding `Sc1ncnc2nc[nH]c12` [6-MP, 6-mercaptopurine], the IC50 in assay [1] (697 Wild Type cells) is over 64000 nM; in assay [1] (697 shControl cells), over 64000 nM; in assay [1] (setting [8]) it was 2860 nM; in assay [1] (setting [9]), 3240 nM. For the same compound, the “induction of apoptotic cell death with Mer knockdown” value in assay [2] is reported as “increased induction of apoptotic cell death”.

On to `N.N.O=C([O-])C1(C(=O)[O-])CCC1.[Pt+2]` [Carbo, carboplatin], for which the IC50 in assay [3] (A549 Wild Type) was over 160000 nM; in assay [3] (A549 shAxl8-G5 (Axl knockdown)), 9130 nM; in assay [3] (A549 shControl) it was over 160000 nM; in assay [3] (A549 shMer1-G8 (Mer knockdown)) it was 93400 nM; in assay [4] (A549 Wild Type, 48 hours), 19800 nM; in assay [4] (A549 shAxl8-G5, 48 hours), 16900 nM. For the same compound, the half-inhibitory concentration (IC50) is 15200 nM in assay [4] (A549 shAxl9-D3, 48 hours); 15400 nM in assay [4] (A549 shControl, 48 hours); 7200 nM in assay [4] (A549 shMer1-G8, 48 hours); 280 nM in assay [5] (G12 shAxl8, 48 h, MTT); 200 nM in assay [5] (G12 shAxl9, 48 h, MTT); 47900 nM in assay [5] (G12 shControl, 48 h, MTT). Moreover, the IC50 was found to be 780 nM in assay [5] (G12 shMer1, 48 h, MTT); 190 nM in assay [5] (G12 shMer4, 48 h, MTT); 35 nM in assay [6] (A172 shAxl8, 48 h, MTT); 75 nM in assay [6] (A172 shAxl9, 48 h, MTT); 820 nM in assay [6] (A172 shMer1A, 48 h, MTT); 210 nM in assay [6] (A172 shMer1B, 48 h, MTT). Further, the “sensitivity of A549 cells with inhibition of Mer expression” value in assay [4] (48 hours) is reported as “increased sensitivity”.

Consider `N.N.[Cl][Pt][Cl]` [Cispl, cisplatin], for which the half-maximal inhibitory concentration (IC50) in assay [3] (A549 Wild Type) was found to be 6480 nM; in assay [3] (A549 shAxl8-G5 (Axl knockdown)), 510 nM; in assay [3] (A549 shAxl9-D3 (Axl knockdown)) it was 3400 nM; in assay [3] (A549 shControl), 8560 nM; in assay [3] (A549 shMer1-G8 (Mer knockdown)), 3000 nM; in assay [4] (A549 Wild Type, 48 hours) it was 2100 nM. For the same compound, the half-maximal inhibitory concentration (IC50) came out at 2700 nM in assay [4] (A549 shAxl8-G5, 48 hours); 2300 nM in assay [4] (A549 shAxl9-D3, 48 hours); 1700 nM in assay [4] (A549 shControl, 48 hours); 1000 nM in assay [4] (A549 shMer1-G8, 48 hours). Moreover, the “sensitivity of the shAxl9-D3 Axl knockdown clone” value in assay [3] is “more sensitive”.

Turning to `COc1cccc2c1C(=O)c1c(O)c3c(c(O)c1C2=O)C[C@@](O)(C(=O)CO)C[C@@H]3O[C@H]1C[C@H](N)[C@H](O)[C@H](C)O1` [DOXO, doxorubicin], the IC50 was found to be 16.7 nM in assay [1] (697 Wild Type cells); 11.1 nM in assay [1] (697 shControl cells); 2.83 nM in assay [1] (setting [8]); 3.26 nM in assay [1] (setting [9]); 34.9 nM in assay [3] (setting [10]); 2.1 nM in assay [3] (setting [11]). Further, the half-maximal inhibitory concentration (IC50) was 13 nM in assay [3] (setting [12]); 69.2 nM in assay [3] (setting [13]); 71.2 nM in assay [3] (setting [14]); 43.1 nM in assay [4] (setting [15]); 50 nM in assay [4] (setting [16]); 33.2 nM in assay [4] (setting [17]). For the same compound, the IC50 came to 51.1 nM in assay [4] (setting [18]) and 20.4 nM in assay [4] (setting [19]). In assay [3], the “sensitivity of the shAxl9-D3 Axl knockdown clone” value is on record as “more sensitive”. Also, in assay [4] (48 hours), the “sensitivity of A549 cells with inhibition of Mer expression” value was “increased sensitivity”. In addition, in assay [7] (A549 Axl knockdown vs shControl), the “induction of apoptosis with inhibition of Axl” value is “increased induction of apoptosis”. The “level of cell death in Mer knockdown cells” value in assay [7] (A549 Mer knockdown cells, treated vs untreated) is recorded as “did not increase the level of cell death”.

In the case of `Cn1nnc2c(C(N)=O)ncn2c1=O` [Temozolomide, temozolomide], the IC50 in assay [5] (48 h, G12 shAxl8, 48 h, MTT) is 6900 nM; in assay [5] (48 h, G12 shAxl9, 48 h, MTT) it was 1800 nM; in assay [5] (48 h, G12 shControl, MTT) it was 68600 nM; in assay [5] (48 h, G12 shMer1, 48 h, MTT), 18200 nM; in assay [5] (48 h, G12 shMer4, 48 h, MTT), 1000 nM; in assay [6] (Homo sapiens, A 172, 48 h, A172 shAxl8, 48 h, MTT), 27600 nM. In addition, the IC50 stood at 38900 nM in assay [6] (Homo sapiens, A 172, 48 h, A172 shAxl9, 48 h, MTT); 51400 nM in assay [6] (Homo sapiens, A 172, 48 h, A172 shControl, 48 h, MTT); 21300 nM in assay [6] (Homo sapiens, A 172, 48 h, A172 shMer1A, 48 h, MTT); 7700 nM in assay [6] (Homo sapiens, A 172, 48 h, A172 shMer1B, 48 h, MTT).

Turning to `CC[C@]1(O)C[C@H]2CN(CCc3c([nH]c4ccccc34)[C@@](C(=O)OC)(c3cc4c(cc3OC)N(C=O)[C@H]3[C@@](O)(C(=O)OC)[C@H](OC(C)=O)[C@]5(CC)C=CCN6CC[C@]43[C@@H]65)C2)C1` [VCR, vincristine], the 50% inhibitory concentration (IC50) in assay [1] (697 Wild Type cells) amounted to 1.04 nM; in assay [1] (697 shControl cells), 1.02 nM; in assay [1] (setting [8]), 0.54 nM; in assay [1] (setting [9]), 0.46 nM; in assay [5] (G12 shAxl8, MTT) it was 0.31 nM; in assay [5] (G12 shAxl9, MTT), 0.2 nM. Also, the half-maximal inhibitory concentration (IC50) was 1.64 nM in assay [5] (G12 shControl, MTT); 0.74 nM in assay [5] (G12 shMer1, MTT); 0.22 nM in assay [5] (G12 shMer4, MTT); 0.68 nM in assay [6] (Homo sapiens, A 172, A172 shAxl8, MTT); 2.92 nM in assay [6] (Homo sapiens, A 172, A172 shAxl9, MTT); 2.54 nM in assay [6] (Homo sapiens, A 172, A172 shControl, MTT). Further, the IC50 in assay [6] (Homo sapiens, A 172, A172 shMer1A, MTT) came to 1.25 nM; in assay [6] (Homo sapiens, A 172, A172 shMer1B, MTT), 0.54 nM.

On to `COc1cc([C@@H]2c3cc4c(cc3[C@@H](O[C@@H]3O[C@@H]5CO[C@@H](C)O[C@H]5[C@H](O)[C@H]3O)[C@H]3COC(=O)[C@H]23)OCO4)cc(OC)c1O` [VP-16, etoposide], for which the half-maximal inhibitory concentration (IC50) in assay [1] (697 Wild Type cells) turned out to be 181 nM; in assay [1] (697 shControl cells), 173 nM; in assay [1] (setting [8]) it was 54 nM; in assay [1] (setting [9]), 60.3 nM; in assay [3] (setting [10]), 2200 nM; in assay [3] (setting [11]), 330 nM. The half-maximal inhibitory concentration (IC50) in assay [3] (setting [12]) was determined as 1010 nM; in assay [3] (setting [13]), 3320 nM; in assay [3] (setting [14]), 3840 nM; in assay [4] (setting [15]) it was 720 nM; in assay [4] (setting [16]), 1400 nM; in assay [4] (setting [17]), 590 nM. In addition, the 50% inhibitory concentration (IC50) is 910 nM in assay [4] (setting [18]) and 370 nM in assay [4] (setting [19]). For the same compound, the “sensitivity of the shAxl9-D3 Axl knockdown clone” value in assay [3] is given as “more sensitive”. Besides, the “sensitivity of A549 cells with inhibition of Mer expression” value in assay [4] (48 hours) is on record as “increased sensitivity”. The “induction of apoptotic cell death with Mer knockdown” value in assay [2] is reported as “increased induction of apoptotic cell death”.

In general, IC50 refers to the point on the concentration scale where inhibition reaches its midpoint. Low values mean greater potency in that assay, high ones weaker potency in that assay.
